pIC50: −log10 of the molar value. Values after ≈ are worked out from the molar mass of the structure shown.
Legend:
[1] = biological target: T1, PBP3 from Pseudomonas aeruginosa (PAO1) (Pseudomonas aeruginosa, UniProt G3XD46); assay: Bocillin-FL fluorescence polarization competition binding, P. aeruginosa PBP3; conditions: Binding affinity to P. aeruginosa PBP3; fluorescence polarization competition binding assay using Bocillin-FL; read-out: P. aeruginosa PBP3 Potency
T1 construct: made in house
How it was run: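 Purified PBPs pre-incubated with inhibitor (E. coli PBP3 1.5 μM, 30 min; P. aeruginosa PBP3 0.75 μM, A. baumannii PBP1a 1 μM and PBP3 0.2 μM, 15 min), then Bocillin-FL 0.1 μM (0.05 μM for PBP1a) added; FP read up to 60 min. EC50 = concentration halving bound Bocillin-FL.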

E. coli ATCC 25922 = assay: microbe, parasite or virus in culture; assay type: cell-based; conditions: Escherichia coli, ATCC25922, read-out: MIC E. coli 25922
E. coli D22 = assay: microbe, parasite or virus in culture; assay type: cell-based; conditions: Escherichia coli, D22, read-out: MIC E. coli D22
E. coli AG100A = assay: Broth microdilution MIC in CAMHB; assay type: cell-based; conditions: Escherichia coli, read-out: MIC E. coli AG100A
K. pneumoniae 848844 = assay: microbe, parasite or virus in culture; assay type: cell-based; conditions: Klebsiella pneumoniae, 848844, read-out: MIC K. pneumoniae 848844
K. pneumoniae SI-117 = assay: microbe, parasite or virus in culture; assay type: cell-based; conditions: Klebsiella pneumoniae, SI117, read-out: MIC K. pneumoniae SI-117
P. aeruginosa ATCC 35151 = assay: microbe, parasite or virus in culture; assay type: cell-based; conditions: Pseudomonas aeruginosa, ATCC35151, read-out: MIC P. aeruginosa ATCC 35151
[2] = system: P. aeruginosa (ΔmexAB-oprM); assay: Broth microdilution MIC in CAMHB; assay type: cell-based; conditions: Pseudomonas aeruginosa; read-out: MIC P. aeruginosa ΔmexAB-oprM
[3] = system: N. gonorrhoeae ATCC 49226; assay: Liquid broth MIC in Fastidious broth; conditions: Neisseria gonorrhoeae, ATCC49226, read-out: Minimum Inhibitory Concentration (MIC), N. gonorrhoeae ATCC 49226
Description: Additional antibacterial testing of the series was performed in 8 reference strains of N. gonorrhoeae (ATCC 49226, FA1090, MS 11, WHO G, WHO L, WHO M, WHO K, WHO X, WHO Z, WHO Q, CDC-0197). ATCC 49226, FA1090, MS11, WHO G, WHO L, and WHO M produce wild type or wild-type like PBP2. WHO K, WHO X, WHO Z, WHO Q, and CDC-0197 produce mosaic PBP2. Liquid broth-based assays were used for antibacterial testing of PBP inhibitors in Neisseria gonorrhoeae. Briefly, cryo-preserved bacterial cultures of clinical strains were streaked for isolation on Chocolate Agar (72 g/L (2×) GC Agar Base (BD #228950) and 2% (2×) Hemoglobin was autoclaved at 121° C. for 20 minutes to sterilize. Once cooled to ˜50° C. the 2×GC Agar Base and 2× Hemoglobin solutions are combined and 1% IsoVitaleX Enrichment (BD #211876) was added to the solution). Strains were incubated at 36° C. and 5% CO2 to allow growth of colonies, 24 hours before inoculum preparation. 2-fold serial dilutions of test compounds were conducted in a 96 well plate with a final volume of 75 μL per well at 2-fold the final desired concentration in Fastidious broth (Remel #R07664). For preparation of assay inoculum, a direct suspension was prepared by aseptically swabbing 10-15 colonies from agar plates into culture tubes containing 2 mL of fresh sterile saline. After the dilution plates were set up, direct suspensions were then diluted in a cuvette containing sterile saline and the optical density was measured at 600 nm. Inocula were diluted such that 75 μL of this culture in Fastidious broth results in a starting bacterial concentration of 5×10^5 CFU/mL when added to the dilution plates. The plates were incubated for ˜24 hours at 36° C. and 5% CO2.

N. gonorrhoeae FA1090 = assay: Liquid broth MIC in Fastidious broth; conditions: Neisseria gonorrhoeae, FA1090, read-out: Minimum Inhibitory Concentration (MIC), N. gonorrhoeae FA 1090
N. gonorrhoeae WHO G = assay: Liquid broth MIC in Fastidious broth; conditions: Neisseria gonorrhoeae, read-out: Minimum Inhibitory Concentration (MIC), N. gonorrhoeae WHO G
N. gonorrhoeae WHO M = assay: Liquid broth MIC in Fastidious broth; conditions: Neisseria gonorrhoeae, read-out: Minimum Inhibitory Concentration (MIC), N. gonorrhoeae WHO M
N. gonorrhoeae WHO K = assay: Liquid broth MIC in Fastidious broth; conditions: Neisseria gonorrhoeae, read-out: Minimum Inhibitory Concentration (MIC), N. gonorrhoeae WHO K
N. gonorrhoeae WHO X = assay: Liquid broth MIC in Fastidious broth; conditions: Neisseria gonorrhoeae, read-out: Minimum Inhibitory Concentration (MIC), N. gonorrhoeae WHO X
N. gonorrhoeae WHO Q = assay: Liquid broth MIC in Fastidious broth; conditions: Neisseria gonorrhoeae, read-out: Minimum Inhibitory Concentration (MIC), N. gonorrhoeae WHO Q
N. gonorrhoeae CDC-0197 = assay: Liquid broth MIC in Fastidious broth; conditions: Neisseria gonorrhoeae, CDC0197, read-out: Minimum Inhibitory Concentration (MIC), N. gonorrhoeae CDC-0197

T1 sequence (G3XD46 whole entry): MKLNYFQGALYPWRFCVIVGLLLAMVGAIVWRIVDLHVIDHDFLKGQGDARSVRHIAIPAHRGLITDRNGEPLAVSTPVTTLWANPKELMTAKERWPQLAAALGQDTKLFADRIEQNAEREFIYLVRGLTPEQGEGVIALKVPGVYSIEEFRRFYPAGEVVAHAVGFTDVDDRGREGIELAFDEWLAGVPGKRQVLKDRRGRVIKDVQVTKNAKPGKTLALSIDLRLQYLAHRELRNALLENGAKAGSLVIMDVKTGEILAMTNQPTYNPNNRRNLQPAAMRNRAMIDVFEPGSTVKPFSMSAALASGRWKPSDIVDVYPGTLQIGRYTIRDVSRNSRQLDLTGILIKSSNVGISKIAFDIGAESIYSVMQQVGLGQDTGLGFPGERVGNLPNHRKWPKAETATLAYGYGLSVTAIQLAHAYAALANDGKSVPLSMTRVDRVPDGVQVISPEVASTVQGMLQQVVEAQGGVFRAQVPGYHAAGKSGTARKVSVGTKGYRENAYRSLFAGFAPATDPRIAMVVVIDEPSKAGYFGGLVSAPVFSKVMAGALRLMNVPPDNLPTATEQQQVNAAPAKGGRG

Row | SMILES | pIC50 [1] | MIC (E. coli ATCC 25922) [µg/mL] | MIC (E. coli D22) [µg/mL] | MIC (E. coli AG100A) [µg/mL] | MIC (K. pneumoniae 848844) [µg/mL] | MIC (K. pneumoniae SI-117) [µg/mL] | MIC (P. aeruginosa ATCC 35151) [µg/mL] | MIC [2] [µg/mL] | MIC [3] [µg/mL] | MIC (N. gonorrhoeae FA1090) [µg/mL] | MIC (N. gonorrhoeae WHO G) [µg/mL] | MIC (N. gonorrhoeae WHO M) [µg/mL] | MIC (N. gonorrhoeae WHO K) [µg/mL] | MIC (N. gonorrhoeae WHO X) [µg/mL] | MIC (N. gonorrhoeae WHO Q) [µg/mL] | MIC (N. gonorrhoeae CDC-0197) [µg/mL]
1 | Nc1ncc(C(=O)N[C@@H](C(=O)N[C@H]2Cc3cccc(C(=O)O)c3OB2O)c2ccc(P(=O)(O)O)cc2)s1 (racemic) [Example 50, (R)-3-((S)-2-(2-aminothiazole-5-carboxamido)-2-(4-phosphonophenyl)acetamido)-2-hydroxy-3,4-dihydro-2H-benzo[e][1,2]oxaborinine-8-carboxylic acid and (R)-3-((R)-2-(2-aminothiazole-5-carboxamido)-2-(4-phosphonophenyl)acetamido)-2-hydroxy-3,4-dihydro-2H-benzo[e][1,2]oxaborinine-8-carboxylic acid] | > 5.00 | > 128 | 32 to 64 (≈ 58.6 to 117 µM) | > 128 | > 128 | > 128 | 2 to 4 (≈ 3.66 to 7.32 µM) | 32 to 64 (≈ 58.6 to 117 µM) | 4 to 8 (≈ 7.32 to 14.6 µM) | 1 to 2 (≈ 1.83 to 3.66 µM) | 1 to 2 (≈ 1.83 to 3.66 µM) | 1 to 2 (≈ 1.83 to 3.66 µM) | 16 to 32 (≈ 29.3 to 58.6 µM) | 16 to 32 (≈ 29.3 to 58.6 µM) | 16 to 32 (≈ 29.3 to 58.6 µM) | 16 to 32 (≈ 29.3 to 58.6 µM)
2 | Nc1nc(C(=O)N[C@@H](C(=O)N[C@H]2Cc3cccc(C(=O)O)c3OB2O)c2ccc(P(=O)(O)O)cc2)cs1 (racemic) [Example 51, (R)-3-((S)-2-(2-aminothiazole-4-carboxamido)-2-(4-phosphonophenyl)acetamido)-2-hydroxy-3,4-dihydro-2H-benzo[e][1,2]oxaborinine-8-carboxylic acid and (R)-3-((R)-2-(2-aminothiazole-4-carboxamido)-2-(4-phosphonophenyl)acetamido)-2-hydroxy-3,4-dihydro-2H-benzo[e][1,2]oxaborinine-8-carboxylic acid] | > 5.00 | > 128 | 2 to 4 (≈ 3.66 to 7.32 µM) | 32 to 64 (≈ 58.6 to 117 µM) | > 128 | > 128 | 2 to 4 (≈ 3.66 to 7.32 µM) | 32 to 64 (≈ 58.6 to 117 µM) | < 1 | < 1 | < 1 | < 1 | 1 to 2 (≈ 1.83 to 3.66 µM) | 4 to 8 (≈ 7.32 to 14.6 µM) | 1 to 2 (≈ 1.83 to 3.66 µM) | < 1
3 | CN1CCC[C@@H]1C(=O)N[C@@H](C(=O)N[C@H]1Cc2cccc(C(=O)O)c2OB1O)c1ccc(P(=O)(O)O)cc1 (racemic) [Example 54, (R)-2-hydroxy-3-((S)-2-((R)-1-methylpyrrolidine-2-carboxamido)-2-(4-phosphonophenyl)acetamido)-3,4-dihydro-2H-benzo[e][1,2]oxaborinine-8-carboxylic acid and (R)-2-hydroxy-3-((R)-2-((R)-1-methylpyrrolidine-2-carboxamido)-2-(4-phosphonophenyl)acetamido)-3,4-dihydro-2H-benzo[e][1,2]oxaborinine-8-carboxylic acid] | 3.60 to 4.30 | > 128 | > 128 | > 128 | > 128 | > 128 | 32 to 64 (≈ 60.2 to 120 µM) | > 128 | 16 to 32 (≈ 30.1 to 60.2 µM) | 4 to 8 (≈ 7.53 to 15.1 µM) | 16 to 32 (≈ 30.1 to 60.2 µM) | 4 to 8 (≈ 7.53 to 15.1 µM) | 16 to 32 (≈ 30.1 to 60.2 µM) | 16 to 32 (≈ 30.1 to 60.2 µM) | 16 to 32 (≈ 30.1 to 60.2 µM) | 4 to 8 (≈ 7.53 to 15.1 µM)
4 | CCN1CCN(C(=O)N[C@@H](C(=O)N[C@H]2Cc3cccc(C(=O)O)c3OB2O)c2ccc(P(=O)(O)O)c(F)c2)C(=O)C1=O (single isomer, unassigned) [Example 7] | – | 32 to 64 (≈ 52.8 to 106 µM) | 2 to 4 (≈ 3.3 to 6.6 µM) | 8 to 16 (≈ 13.2 to 26.4 µM) | > 128 | > 128 | < 1 | 8 to 16 (≈ 13.2 to 26.4 µM) | < 1 | < 1 | < 1 | < 1 | < 1 | < 1 | < 1 | < 1
5 | O=C(O)c1c(F)ccc2c1OB(O)[C@@H](NC(=O)C(NC(=O)N1CCN(Cc3ccc(O)c(O)c3Cl)C(=O)C1=O)c1ccc(P(=O)(O)O)c(F)c1)C2 (stereo partly drawn) [Example 23, (3R)-3-(2-(4-(2-chloro-3,4-dihydroxybenzyl)-2,3-dioxopiperazine-1-carboxamido)-2-(3-fluoro-4-phosphonophenyl)acetamido)-7-fluoro-2-hydroxy-3,4-dihydro-2H-benzo[e][1,2]oxaborinine-8-carboxylic acid] | > 5.00 | – | – | – | – | – | – | – | < 1 | < 1 | < 1 | < 1 | < 1 | 1 to 2 (≈ 1.33 to 2.66 µM) | < 1 | < 1
6 | O=C(O)c1cccc2c1OB(O)[C@@H](NC(=O)C(NC(=O)N1CCN(Cc3ccc(O)c(O)c3Cl)C(=O)C1=O)c1ccc(P(=O)(O)O)cc1)C2 (stereo partly drawn) [Example 24, (3R)-3-(2-(4-(2-chloro-3,4-dihydroxybenzyl)-2,3-dioxopiperazine-1-carboxamido)-2-(4-phosphonophenyl)acetamido)-2-hydroxy-3,4-dihydro-2H-benzo[e][1,2]oxaborinine-8-carboxylic acid] | > 5.00 | – | – | – | – | – | – | – | < 1 | < 1 | < 1 | < 1 | 4 to 8 (≈ 5.58 to 11.2 µM) | 16 to 32 (≈ 22.3 to 44.6 µM) | 1 to 2 (≈ 1.4 to 2.79 µM) | 1 to 2 (≈ 1.4 to 2.79 µM)
7 | O=C(O)c1c(F)ccc2c1OB(O)[C@@H](NC(=O)C(NC(=O)N1CCN(Cc3cc(F)c(O)c(O)c3Cl)C(=O)C1=O)c1ccc(P(=O)(O)O)cc1)C2 (stereo partly drawn) [Example 45, (3R)-3-(2-(4-(2-chloro-5-fluoro-3,4-dihydroxybenzyl)-2,3-dioxopiperazine-1-carboxamido)-2-(4-phosphonophenyl)acetamido)-7-fluoro-2-hydroxy-3,4-dihydro-2H-benzo[e][1,2]oxaborinine-8-carboxylic acid] | > 5.00 | – | – | – | – | – | – | – | < 1 | < 1 | < 1 | < 1 | 1 to 2 (≈ 1.33 to 2.66 µM) | 4 to 8 (≈ 5.31 to 10.6 µM) | 1 to 2 (≈ 1.33 to 2.66 µM) | 1 to 2 (≈ 1.33 to 2.66 µM)
8 | O=C(O)c1c(F)ccc2c1OB(O)[C@@H](NC(=O)C(NC(=O)N1CCN(Cc3ccc(O)c(O)c3Cl)C1=O)c1ccc(P(=O)(O)O)cc1)C2 (stereo partly drawn) [Example 46, (3R)-3-(2-(3-(2-chloro-3,4-dihydroxybenzyl)-2-oxoimidazolidine-1-carboxamido)-2-(4-phosphonophenyl)acetamido)-7-fluoro-2-hydroxy-3,4-dihydro-2H-benzo[e][1,2]oxaborinine-8-carboxylic acid] | > 5.00 | – | – | – | – | – | – | – | < 1 | < 1 | < 1 | < 1 | 1 to 2 (≈ 1.41 to 2.83 µM) | 1 to 2 (≈ 1.41 to 2.83 µM) | < 1 | < 1
9 | O=C(N[C@@H](C(=O)N[C@H]1Cc2cccc(C(=O)O)c2OB1O)c1ccc(P(=O)(O)O)cc1)c1ccc(O)c(O)c1Cl [Example 49, (R)-3-((R)-2-(2-chloro-3,4-dihydroxybenzamido)-2-(4-phosphonophenyl)acetamido)-2-hydroxy-3,4-dihydro-2H-benzo[e][1,2]oxaborinine-8-carboxylic acid] | < 3.60 | – | – | – | – | – | – | – | – | – | – | – | – | – | – | –
10 | O=C(NCCN1CCN(C(=O)NC(C(=O)N[C@H]2Cc3ccc(F)c(C(=O)O)c3OB2O)c2ccc(P(=O)(O)O)cc2)C(=O)C1=O)c1ccc(O)c(O)c1Cl (stereo partly drawn) [Example 120, (3R)-3-(2-(4-(2-(2-chloro-3,4-dihydroxybenzamido)ethyl)-2,3-dioxopiperazine-1-carboxamido)-2-(4-phosphonophenyl)acetamido)-7-fluoro-2-hydroxy-3,4-dihydro-2H-benzo[e][1,2]oxaborinine-8-carboxylic acid] | > 5.00 | – | – | – | – | – | – | – | – | – | – | – | – | – | – | –
